Data taken from patent US20230277698A1, “SILICON-CONTAINING LIGAND COMPOUNDS” (Technische Universität München, priority 2020, published 2023).

target: T1, PSMA (Homo sapiens, UniProt Q04609); assay: PSMA affinity (IC50), competition with ([125I]I-BA)KuE on LNCaP cells; conditions: natLu complexes; LNCaP cells 150000 cells/well, ([125I]I-BA)KuE c=0.2 nM, 1 h, 4 °C, HBSS+1% BSA; mean±SD, n=3; read-out: IC50 (binding affinity to PSMA)
T1 construct: PSMA-positive LNCAP cells (300265; Cell Lines Service, Eppelheim, Germany); host or cells: LNCaP cells
T1 sequence (Q04609 whole entry): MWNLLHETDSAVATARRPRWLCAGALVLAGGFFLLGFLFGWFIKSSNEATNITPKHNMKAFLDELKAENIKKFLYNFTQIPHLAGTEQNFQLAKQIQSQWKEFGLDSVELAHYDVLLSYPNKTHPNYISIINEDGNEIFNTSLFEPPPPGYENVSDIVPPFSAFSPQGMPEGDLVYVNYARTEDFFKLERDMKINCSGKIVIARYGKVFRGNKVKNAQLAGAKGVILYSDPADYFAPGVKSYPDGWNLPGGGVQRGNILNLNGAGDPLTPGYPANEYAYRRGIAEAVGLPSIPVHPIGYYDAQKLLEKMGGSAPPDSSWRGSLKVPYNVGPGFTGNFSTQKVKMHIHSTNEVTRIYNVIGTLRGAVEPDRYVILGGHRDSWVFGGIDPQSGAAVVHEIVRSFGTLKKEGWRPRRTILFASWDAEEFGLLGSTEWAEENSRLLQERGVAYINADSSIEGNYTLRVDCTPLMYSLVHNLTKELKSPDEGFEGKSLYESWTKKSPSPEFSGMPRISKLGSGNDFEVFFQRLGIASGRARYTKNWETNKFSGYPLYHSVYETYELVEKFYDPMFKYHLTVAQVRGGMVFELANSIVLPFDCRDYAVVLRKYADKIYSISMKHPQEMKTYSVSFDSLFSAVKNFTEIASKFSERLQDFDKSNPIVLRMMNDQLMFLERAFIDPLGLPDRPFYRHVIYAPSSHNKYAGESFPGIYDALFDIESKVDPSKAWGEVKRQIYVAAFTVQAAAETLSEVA
Protocol: PSMA-positive LNCAP cells (300265; Cell Lines Service, Eppelheim, Germany) were cultivated in Dulbecco modified Eagle medium/Nutrition Mixture F-12 with Glutamax (1:1) (DMEM-F12, Biochrom, Berlin, Germany) supplemented with fetal bovine serum (10%, FBS Zellkultur, Berlin, Germany) and kept at 37° C. in a humidified CO2 atmosphere (5%). A mixture of trypsin and EDTA (0.05%, 0.02%) in PBS (Biochrom) was used in order to harvest cells. Cells were counted with a Neubauer hemocytometer (Paul Marienfeld, Lauda-Königshofen, Germany).
In the case of metal-complexed ligands, the crude reaction mixture was diluted analogously, without further purification. Cells were harvested 24±2 hours prior to the experiment and seeded in 24-well plates (1.5×10^5 cells in 1 mL/well). After removal of the culture medium, the cells were carefully washed with 500 μL of HBSS, supplemented with 1% bovine serum albumin (BSA, Biowest, Nuaillé, France) and left 15 min on ice for equilibration in 200 μL HBSS (1% BSA). Next, 25 μL per well of solutions, containing either HBSS (1% BSA, control) or the respective ligand in increasing concentration ([…] in HBSS) were added with subsequent addition of 25 μL of [^125I]-BA-KuE (2.0 nM) in HBSS (1% BSA). After incubation on ice for 60 min, the experiment was terminated by removal of the medium and consecutive rinsing with 200 μL of HBSS (1% BSA). The media of both steps were combined in one fraction and represent the amount of free radioligand. Afterwards, the cells were lysed with 250 μL of 1 M aqueous NaOH for at least 10 min. After a washing step (250 μL of 1 M NaOH), both fractions, representing the amount of bound ligand, were united. Quantification of all collected fractions was accomplished in a γ-counter. PSMA-affinity determinations were carried out at least three times per ligand.
Affinities were determined using LNCaP cells (150000 cells/well) and ([^125I]I-BA)KuE (c=0.2 nM) as the radioligand (1 h, 4° C., HBSS+1% BSA). Data are expressed as mean±SD (n=3).

| SMILES | IC50 [nM] |
| --- | --- |
| CC(C)(C)[Si](O)(c1ccc(C(=O)NC[C@@H](NC(=O)CC[C@@H](C(=O)O)N2CCN(CC(=O)O)CCN(CC(=O)O)CCN(CC(=O)O)CC2)C(=O)N[C@H](CCCCNC(=O)CCC(=O)NCCC[C@@H](NC(=O)CC[C@H](NC(=O)N[C@@H](CCC(=O)O)C(=O)O)C(=O)O)C(=O)O)C(=O)O)cc1)C(C)(C)C [7.3-SiOH] | 5.9 ± 1.4 |
| CC(C)(C)[Si](O)(c1ccc(C(=O)NC[C@@H](NC(=O)CC[C@@H](C(=O)O)N2CCN(CC(=O)O)CCN(CC(=O)O)CCN(CC(=O)O)CC2)C(=O)N[C@H](CO)C(=O)NCCC(=O)NCCC(=O)NCCC[C@@H](NC(=O)CC[C@H](NC(=O)N[C@@H](CCC(=O)O)C(=O)O)C(=O)O)C(=O)O)cc1)C(C)(C)C [C007-SiOH] | 7.1 ± 0.9 |
| CC(C)(C)[Si](O)(c1ccc(C(=O)NC[C@@H](NC(=O)CC[C@@H](C(=O)O)N2CCN(CC(=O)O)CCN(CC(=O)O)CCN(CC(=O)O)CC2)C(=O)NCC(=O)N[C@@H](CCCCNC(=O)CCC(=O)NCCC[C@@H](NC(=O)CC[C@H](NC(=O)N[C@@H](CCC(=O)O)C(=O)O)C(=O)O)C(=O)O)C(=O)O)cc1)C(C)(C)C [E102-SiOH] | 8.4 ± 2.4 |
| CC(C)(C)[Si](O)(c1ccc(C(=O)NC[C@@H](NC(=O)CCCCCNC(=O)CCCNC(=O)CC[C@@H](NC(=O)CCC(NC(=O)N[C@@H](CCC(=O)O)C(=O)O)C(=O)O)C(=O)O)C(=O)NCC(=O)N[C@@H](CCCCNC(=O)CC[C@@H](C(=O)O)N2CCN(CC(=O)O)CCN(CC(=O)O)CCN(CC(=O)O)CC2)C(=O)O)cc1)C(C)(C)C (stereo partly drawn) [E104-SiOH] | 9 ± 2.2 |
| CC(C)(C)[Si](O)(c1ccc(C(=O)N[C@H](CCC(=O)NC[C@@H](NC(=O)CC[C@@H](C(=O)O)N2CCN(CC(=O)O)CCN(CC(=O)O)CCN(CC(=O)O)CC2)C(=O)NCCCCCC(=O)NCCC[C@@H](NC(=O)CC[C@H](NC(=O)N[C@@H](CCC(=O)O)C(=O)O)C(=O)O)C(=O)O)C(=O)O)cc1)C(C)(C)C [P105-SiOH] | 9.8 ± 0.4 |
| CC(C)(C)[Si](O)(c1ccc(C[N+](C)(C)CC(=O)NCCC[C@@H](NC(=O)CC[C@@H](C(=O)O)N2CCN(CC(=O)O)CCN(CC(=O)O)CCN(CC(=O)O)CC2)C(=O)NCCCCCC(=O)NCCC[C@@H](NC(=O)CC[C@H](NC(=O)N[C@@H](CCC(=O)O)C(=O)O)C(=O)O)C(=O)O)cc1)C(C)(C)C [P110-SiOH] | 42.2 ± 6.2 |
| O=C(O)CC[C@H](NC(=O)N[C@@H](CCCCNC(=O)[C@H](Cc1ccc2ccccc2c1)NC(=O)[C@H]1CC[C@H](CNC(=O)CN2CCN(CC(=O)O)CCN(CC(=O)O)CCN(CC(=O)O)CC2)CC1)C(=O)O)C(=O)O [PSMA-617, reference compound] | 3.8 ± 1.7 |
| CC(C)(C)[Si](F)(c1ccc(C(=O)NC[C@@H](NC(=O)CC[C@@H](C(=O)O)N2CCN(CC(=O)O)CCN(CC(=O)O)CCN(CC(=O)O)CC2)C(=O)N[C@H](CCCCNC(=O)CCC(=O)NCCC[C@@H](NC(=O)CC[C@H](NC(=O)N[C@@H](CCC(=O)O)C(=O)O)C(=O)O)C(=O)O)C(=O)O)cc1)C(C)(C)C [rhPSMA-7.3, reference compound] | 8 ± 1.6 |
| CC(C)(C)[Si](F)(c1ccc(C(=O)NC[C@@H](NC(=O)CN2CCN(CC(=O)O)CCN(CC(=O)O)CCN(CC(=O)O)CC2)C(=O)N[C@H](CCCCNC(=O)CCC(=O)NCCC[C@@H](NC(=O)CC[C@H](NC(=O)N[C@@H](CCC(=O)O)C(=O)O)C(=O)O)C(=O)O)C(=O)O)cc1)C(C)(C)C [rhPSMA-10, reference compound] | 2.8 ± 0.7 |
